According to paper PMC7019114, “Bioactivity, Compounds Isolated, Chemical Qualitative, and Quantitative Analysis of Cymbaria daurica Extracts” (Frontiers in Pharmacology, 2020):
Values belong to the molecule of their own block, whether it stands above or below them.

Tests used:
[1] = test system: intestinal inflammation model; parameters: method as in Carrillo-Ocampo et al., 2013; conditions: ref Carrillo-Ocampo et al., 2013; cited from earlier work
[2] = test system: tyrosine phosphatase SHP-1; parameters: method as in Pesce et al., 2015; conditions: U937 cell line; ref Pesce et al., 2015; cited from earlier work
[3] = test system: streptozotocin-induced diabetic rats; parameters: method as in Huang et al., 2010; conditions: intravenous injection, ref Huang et al., 2010; cited from earlier work
[4] = test system: LPS-induced NO production in RAW 264.7 cell; experiment: Nitric oxide assay (Griess test), LPS-induced NO production; assay type: cell-based; conditions: Mus musculus; RAW264.7 cell, LPS 1 μg/mL, positive control, n = 5; read-out: IC50 of inhibitory activity on LPS-induced NO production
Protocol: RAW 264.7 mouse macrophages were cultured in high glucose DMEM supplemented with 10% FBS and a mixture of penicillin and streptomycin. The cells were maintained in a humidified incubator with an atmosphere of 5% CO2 at 37°C. RAW 264.7 cells were plated at a density of 5 × 10^5 cells/mL in 24-well plates, cultured for 12 h, and then treated with LPS (1 μg/mL) and incubated for 4 h. Thereafter, the cells were treated with different concentrations (25, 50, 100, 200, and 400 μg/mL) of C. daurica extracts (water, n-butanol, ethyl acetate, and petroleum-ether extracts) and incubated for an additional 20 h. […] The amount of NO in the medium was detected using the Griess test. One hundred microliters of each supernatant were mixed with equal volume of Griess reagent (1% sulfanilamide in 5% phosphoric acid and 0.1% naphthylethylenediamine dihydrochloride in water). The absorbance of the mixture at 550 nm and concentration of nitrite were determined using serially diluted sodium nitrite as the standard ([Qiao et al., 2005]).

Structure (SMILES): C[C@@H]1O[C@@H](O[C@@H]2[C@@H](O)[C@H](OCCc3ccc(O)c(O)c3)O[C@H](CO)[C@H]2OC(=O)/C=C/c2ccc(O)c(O)c2)[C@H](O)[C@H](O)[C@H]1O [Compound 7, verbascoside]
presence of pro-inflammatory molecules [1]: decreased the presence of pro-inflammatory molecules | activity of tyrosine phosphatase SHP-1 [2]: increasing the activity of tyrosine phosphatase SHP-1

Structure (SMILES): OC[C@H]1O[C@@H](O[C@@H]2OC=C[C@H]3[C@H](O)[C@@H]4O[C@]4(CO)[C@@H]23)[C@H](O)[C@@H](O)[C@@H]1O [Compound 1, catalpol]
anti-hyperglycemic activity [3]: exhibited anti-hyperglycemic activity in a dose-dependent manner

IC50 [4]: 60 ± 0.8 µM
Structure (SMILES): COc1ccc2c(c1)c(CC(=O)O)c(C)n2C(=O)c1ccc(Cl)cc1 [Indomethacin]
